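Test compounds were applied to cells in 96-well plates for 48 hours at 5 doses. Abbreviation: GI50, concentration required for 50% inhibition of growth.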 Calls of active or inactive are those of the source. No stated cut-off is given here; in the data, active = GI50 up to about 1.1 µM and inactive = higher.
Assays:
Assay in all cases: NCI-60 cell line screen, 48 h
A549 = tested on: A549
CAKI-1 = tested on: CAKI-1
COLO 205 = tested on: COLO 205
HCT-116 = tested on: HCT-116
LOX IMVI = tested on: LOX IMVI
LXFL 529 = tested on: LXFL 529
M14 = tested on: M14
Malme-3M = tested on: Malme-3M
NCI-H23 = tested on: NCI-H23
NCI-H522 = tested on: NCI-H522
SK-MEL-2 = tested on: SK-MEL-2
SK-MEL-5 = tested on: SK-MEL-5
SK-OV-3 = tested on: SK-OV-3
SNB-75 = tested on: SNB-75
SW-620 = tested on: SW-620
U-251 = tested on: U-251
UACC-62 = tested on: UACC-62
HCC 2998 = tested on: HCC 2998
HL-60 = tested on: HL-60
T47D = tested on: T47D

Measured: GI50

Cc1cc2c(=O)cc(-c3ccc(F)cc3)oc2c(C(=O)O)c1C
inactive: A549 > 100 µM | CAKI-1 > 100 µM | COLO 205 > 100 µM | HCT-116 > 100 µM | LOX IMVI > 100 µM | LXFL 529 > 100 µM | M14 > 100 µM | Malme-3M > 100 µM | NCI-H23 > 100 µM | NCI-H522 > 100 µM | SK-MEL-2 > 100 µM | SK-MEL-5 > 100 µM | SK-OV-3 > 100 µM | SNB-75 > 100 µM | SW-620 > 100 µM | U-251 > 100 µM | UACC-62 > 100 µM

Cc1cc(=O)c2c(O)cc3c(c2o1)CC=C(COC1OC(COC2OC(CO)C(O)C(O)C2O)C(O)C(O)C1O)CO3 (configuration not stated)
inactive: A549 > 100 µM | CAKI-1 > 100 µM | COLO 205 > 100 µM | HCC 2998 > 100 µM | HCT-116 > 100 µM | LOX IMVI > 100 µM | LXFL 529 > 100 µM | M14 > 100 µM | Malme-3M > 100 µM | NCI-H23 > 100 µM | NCI-H522 > 100 µM | SK-MEL-2 > 100 µM | SK-MEL-5 > 100 µM | SK-OV-3 > 100 µM | SNB-75 > 100 µM | SW-620 > 100 µM | U-251 > 100 µM | UACC-62 > 100 µM

BrC1=CC=C2NC=CC3=CC=NC1C32 (configuration not stated)
inactive: COLO 205 21.6 µM | HCC 2998 35.1 µM | HCT-116 6.03 µM | HL-60 4.08 µM | LOX IMVI 9.55 µM | LXFL 529 19.5 µM | M14 18 µM | Malme-3M 27.7 µM | NCI-H23 7.71 µM | NCI-H522 11.5 µM | SK-MEL-2 18.9 µM | SK-MEL-5 20 µM | SK-OV-3 25.1 µM | SNB-75 18.3 µM | SW-620 8.95 µM | U-251 7.67 µM | UACC-62 9.53 µM

COC(=O)C1=C(O)c2cc(OC)c(OC)cc2C(c2ccc(OC)c(OC)c2)C1 (configuration not stated)
inactive: A549 > 100 µM | CAKI-1 > 100 µM | COLO 205 38.6 µM | HCC 2998 > 100 µM | HCT-116 56.4 µM | HL-60 > 100 µM | LOX IMVI 69.5 µM | LXFL 529 43.3 µM | M14 > 100 µM | Malme-3M > 100 µM | NCI-H23 > 100 µM | SK-MEL-2 > 100 µM | SK-MEL-5 > 100 µM | SK-OV-3 > 100 µM | SNB-75 > 100 µM | SW-620 54.8 µM | U-251 > 100 µM | UACC-62 99.8 µM

CC1(C)CC2CC(CC(C)(C)C2=O)C1=O
inactive: A549 > 100 µM | CAKI-1 > 100 µM | COLO 205 > 100 µM | HCC 2998 > 100 µM | HCT-116 > 100 µM | HL-60 > 100 µM | LOX IMVI > 100 µM | LXFL 529 > 100 µM | M14 > 100 µM | Malme-3M > 100 µM | NCI-H23 > 100 µM | SK-MEL-2 > 100 µM | SK-MEL-5 > 100 µM | SK-OV-3 > 100 µM | SNB-75 > 100 µM | SW-620 > 100 µM | U-251 > 100 µM | UACC-62 > 100 µM

CC(=O)c1cccc(NCn2nnc3ccccc32)c1
inactive: A549 > 100 µM | COLO 205 > 100 µM | HCC 2998 > 100 µM | HCT-116 > 100 µM | HL-60 61 µM | LOX IMVI > 100 µM | LXFL 529 > 100 µM | M14 > 100 µM | Malme-3M > 100 µM | NCI-H23 > 100 µM | NCI-H522 > 100 µM | SK-MEL-2 > 100 µM | SK-OV-3 > 100 µM | SNB-75 > 100 µM | SW-620 > 100 µM | U-251 > 100 µM | UACC-62 > 100 µM

Cc1cn(C2CC(n3cncn3)C(C(C)O)O2)c(=O)[nH]c1=O (configuration not stated)
inactive: A549 > 100 µM | COLO 205 > 100 µM | HCC 2998 > 100 µM | HCT-116 > 100 µM | HL-60 > 100 µM | LOX IMVI > 100 µM | LXFL 529 > 100 µM | M14 > 100 µM | Malme-3M > 100 µM | NCI-H23 > 100 µM | NCI-H522 > 100 µM | SK-MEL-2 > 100 µM | SK-MEL-5 > 100 µM | SK-OV-3 > 100 µM | SNB-75 > 100 µM | SW-620 > 100 µM | U-251 > 100 µM | UACC-62 > 100 µM

N#Cc1cn(-c2c3ccccc3nc3ccccc23)c(=O)[nH]c1=O
inactive: A549 4.56 µM | CAKI-1 5.75 µM | COLO 205 5.43 µM | HCT-116 3.95 µM | HL-60 10.6 µM | LOX IMVI 5.12 µM | LXFL 529 9.04 µM | M14 11.6 µM | Malme-3M 10.7 µM | NCI-H23 > 10 µM | NCI-H522 4.03 µM | SK-MEL-2 10.8 µM | SK-OV-3 3.6 µM | SNB-75 16.7 µM | SW-620 5.01 µM | U-251 18 µM | UACC-62 15.8 µM

CC1(C)OC(=S)N(c2ccccc2)C12C=Cc1cc3ccccc3nc1S2 (configuration not stated)
inactive: A549 > 100 µM | COLO 205 84.3 µM | HCC 2998 > 100 µM | HCT-116 > 100 µM | HL-60 40.9 µM | LOX IMVI 59 µM | LXFL 529 44 µM | M14 > 100 µM | Malme-3M > 100 µM | NCI-H23 29.6 µM | NCI-H522 32.6 µM | SK-MEL-2 > 100 µM | SK-MEL-5 56.9 µM | SK-OV-3 > 100 µM | SNB-75 97.1 µM | SW-620 > 100 µM | U-251 > 100 µM | UACC-62 > 100 µM

COc1ccc(C(c2ccc3c(c2)OCO3)N2C(=O)CCC2C(=O)O)cc1 (configuration not stated)
inactive: A549 > 100 µM | CAKI-1 > 100 µM | COLO 205 > 100 µM | HCC 2998 > 100 µM | HCT-116 > 100 µM | HL-60 > 100 µM | LOX IMVI > 100 µM | M14 > 100 µM | Malme-3M > 100 µM | NCI-H23 > 100 µM | NCI-H522 > 100 µM | SK-MEL-2 > 100 µM | SK-MEL-5 > 100 µM | SK-OV-3 > 100 µM | SNB-75 > 100 µM | SW-620 > 100 µM | T47D > 100 µM | U-251 > 100 µM | UACC-62 > 100 µM

CN1C2C=C(c3ccccc3)CC1CC2 (configuration not stated)
inactive: A549 > 100 µM | COLO 205 > 100 µM | HCC 2998 > 100 µM | HCT-116 > 100 µM | HL-60 > 100 µM | LOX IMVI > 100 µM | LXFL 529 > 100 µM | M14 > 100 µM | Malme-3M > 100 µM | NCI-H23 > 100 µM | NCI-H522 > 100 µM | SK-MEL-2 > 100 µM | SK-MEL-5 > 100 µM | SK-OV-3 > 100 µM | SNB-75 56.1 µM | SW-620 > 100 µM | U-251 > 100 µM | UACC-62 > 100 µM

CCOc1cccc2ccc[n+](CC)c12
inactive: A549 48.6 µM | COLO 205 40.8 µM | HCC 2998 > 100 µM | HCT-116 37.1 µM | LOX IMVI 91.6 µM | LXFL 529 54.7 µM | M14 > 100 µM | Malme-3M > 100 µM | NCI-H23 15.9 µM | NCI-H522 16.4 µM | SK-MEL-5 45.5 µM | SK-OV-3 > 100 µM | SNB-75 > 100 µM | SW-620 81.3 µM | UACC-62 > 100 µM

CC(C)N(C(C)C)S(=O)(=O)C[C@]12CC[C@H](CC13OCC(CS(=O)(=O)c1ccccc1)O3)C2(C)C (some centres not stated)
inactive: A549 36.6 µM | CAKI-1 81.3 µM | COLO 205 17.6 µM | HCC 2998 54.5 µM | HCT-116 35.9 µM | HL-60 13 µM | LOX IMVI 64.6 µM | M14 47 µM | Malme-3M 89.1 µM | NCI-H23 47.3 µM | NCI-H522 21.8 µM | SK-MEL-2 52.5 µM | SK-MEL-5 29.4 µM | SK-OV-3 45.5 µM | SNB-75 27.6 µM | SW-620 45 µM | T47D 27.1 µM | U-251 52 µM | UACC-62 49 µM

CCO/C=C\C12CCCC1NC(c1ccccc1)(c1ccccc1)O2 (configuration not stated)
inactive: A549 32.8 µM | CAKI-1 23.3 µM | HCT-116 30.7 µM | HL-60 18.2 µM | LXFL 529 28.1 µM | M14 22.5 µM | Malme-3M 25.9 µM | NCI-H23 28.4 µM | NCI-H522 33.7 µM | SK-MEL-2 23.2 µM | SK-MEL-5 17.1 µM | SK-OV-3 40.4 µM | SNB-75 19.5 µM | SW-620 38.4 µM | U-251 33.3 µM | UACC-62 21.7 µM

Cn1cnc([N+](=O)[O-])c1SC1=NCCS1
inactive: A549 > 100 µM | CAKI-1 > 100 µM | COLO 205 70 µM | HCC 2998 > 100 µM | HCT-116 50 µM | LOX IMVI 17.3 µM | LXFL 529 27 µM | M14 48 µM | Malme-3M 22 µM | NCI-H23 81.1 µM | NCI-H522 16.7 µM | SK-MEL-2 47.4 µM | SK-MEL-5 > 100 µM | SK-OV-3 > 100 µM | SNB-75 > 100 µM | SW-620 47.6 µM | U-251 > 100 µM | UACC-62 51.2 µM

COc1ccc2c(=O)c3ccoc3n(CC=C(C)C)c2c1 [ACROPHYLLINE]
inactive: A549 7.14 µM | CAKI-1 2.99 µM | COLO 205 > 85.3 µM | HCC 2998 > 91.4 µM | HCT-116 52.7 µM | HL-60 23.6 µM | LOX IMVI 42.3 µM | M14 64.4 µM | Malme-3M 3.84 µM | NCI-H23 46.1 µM | NCI-H522 2.65 µM | SK-MEL-2 81.7 µM | SK-MEL-5 32 µM | SK-OV-3 44.7 µM | SNB-75 26.4 µM | SW-620 97.3 µM | T47D 36.1 µM | U-251 > 100 µM | UACC-62 48.4 µM
